Several values for one entry are separate records, joined by “and”; a condition that tells them apart may be missing. Equal entries are not always repeated. Where two headings read alike, the source gives them in different places.
How the values were obtained:
[1] = Further in vitro degradation assay, rat primary hepatocytes
Experimental: (§1) In a further assay, isoxazolines (fluralaner and afoxolaner) and control compounds (7-Ethoxycoumarin and 7-Hydroxycoumarin [Sigma]) were dissolved in DMSO at 10 and 30 mM respectively, then diluted first 20-fold with 45% methanol in water and a further 10-fold in pre-warmed Williams' Medium E. Cryopreserved human, dog and rat hepatocytes (In Vitro Technologies) were thawed, isolated by percoll gradient and suspended in Williams' Medium E. Cells were then dispensed into the wells of 96-well plates containing 10 μL of diluted compounds, to reach a final concentration of 0.5×10^6 cells/mL and 1 μM of isoxazolines or 3 μM of control. After an incubation at 37° C. of 0, 15, 30, 60 or 90 minutes, the reaction was stopped with acetonitrile. The samples were then shaken for 10 minutes at 500 rpm and centrifuged at 3220 g for 20 minutes. Supernatants were transferred and stored at 4° C. until LC-MS-MS analysis.

[2] = Further in vitro degradation assay, human primary hepatocytes; conditions: for half-life / hepatocyte CLint: human; for metabolization when incubated with human hepatocytes: in words
Experimental: as §1

[3] = tested on: Anopheles stephensi; experiment: Standard membrane feeding assay, Anopheles stephensi; assay type: in vivo; conditions: for IC50: Anopheles stephensi; for killing of mosquitos (in words): lethality 1, 2 or 8 days after exposure; for whole blood IC99: mosquitocidal
Experimental: Mosquito colonies utilized in the examples were generally maintained as described: The colony of Anopheles stephensi (Sind-Kasur Nijmegen strain) was maintained at the Radboud University Medical Center, Nijmegen, The Netherlands, by 30° C. and 70-80% humidity and on a 12/12 hour day/night cycle. The Anopheles gambiae strains Kisumu and Tiassalé and the Aedes aegypti strains New Orleans and Cayman were reared at the Liverpool Insect Testing Establishment, Liverpool, UK. Kisumu is an insecticide susceptible lab strain. New Orleans was originally colonized by the Centers for Disease Control and Prevention. The Tiassalé strain was colonized from Southern Cote D'Ivoire where resistance to all classes of insecticide is found and the Cayman strain was colonized from Grand Cayman, where Aedes aegypti are highly resistant to DDT and pyrethroid insecticides. Both resistant strains are routinely selected with insecticides to ensure the maintenance of resistance, 0.75% permethrin for Cayman and 0.05% deltamethrin for Tiassalé, and profiled for resistance to a range of insecticides, including 4% dieldrin, to which Tiassalé is resistant but Cayman is susceptible.
Isoxazoline compounds fluralaner or afoxolaner were reconstituted in 50% human serum and 50% red blood cells and administered to adult Anopheles stephensi mosquitos via standard membrane feeding. Lethality was assessed 1, 2 or 8 days after exposure. FIG. 2A represents a plot of viable Anopheles stephensi versus fluralaner concentration at each day of assessment. FIG. 2B represents a plot of viable Anopheles stephensi versus afoxolaner concentration at each day of assessment. […] The IC50 values of each compound for Anopheles death were determined by logistic regression using a least squares method to find the best fit and are shown in Table 1. IC50 values were calculated by applying a four-parameter logistic regression model using a least-squares method to find the best fit using the Graphpad Prism 5.0 software package.
FIG. 2C represents a plot of viable Anopheles stephensi versus fluralaner concentration at each time of assessment. FIG. 2D represents a plot of viable Anopheles stephensi versus afoxolaner concentration at each time of assessment. FIG. 2E represents plots of viable Anopheles stephensi versus concentration of (S)- and (R)-enantiomers of afoxolaner at each time of assessment. […] The IC50 (M) concentrations are also shown for FIGS. 2C and 2D.

[4] = Dog pharmacokinetics (published values); cited from earlier work
[5] = Further in vitro degradation assay, dog primary hepatocytes
Experimental: as §1

[6] = tested on: Aedes aegypti (Cayman); experiment: Membrane feeding, Aedes aegypti Cayman strain; assay type: in vivo; conditions: read-out: IC50 [95% CI]
[7] = Plasma stability, cynomolgus monkey; assay type: in vitro ADME; conditions: cynomolgus monkey (cy)
Description: (§2) The stability of compounds in mouse (ms), rat (r), dog (d), cynomolgus monkey (cy), and human (hu) plasma is shown in Table 10 by the percentages of compounds remaining at two hours.

[8] = Dog pharmacokinetics, single oral dose; assay type: in vivo; conditions: level at Day 45
[9] = Plasma stability, dog; assay type: in vitro ADME; conditions: dog (d)
Description: as §2

[10] = Plasma stability, human; assay type: in vitro ADME; conditions: human (hu)
Description: as §2

[11] = Plasma stability, rat; assay type: in vitro ADME; conditions: rat (r)
Description: as §2

[12] = Plasma stability, mouse; assay type: in vitro ADME; conditions: mouse (ms)
Description: as §2

Cc1cc(C2=NO[C@](c3cc(Cl)cc(Cl)c3)(C(F)(F)F)C2)ccc1C(=O)NCC(=O)NCC(F)(F)F [Fluralaner, fluralaner]
half-life ([1]; cryopreserved hepatocytes): > 3.61 h | hepatocyte CLint ([1]; cryopreserved hepatocytes): < 6.4 µL/min/1e6 cells | half-life ([2]; cryopreserved hepatocytes): > 3.61 h | hepatocyte CLint ([2]; cryopreserved hepatocytes): < 6.4 µL/min/1e6 cells | metabolization when incubated with human hepatocytes [2]: Neither fluralaner nor afoxolaner showed measurable metabolization | IC50 ([3]; 24 h, 1 day after exposure, read-out: IC50 (Anopheles death)): 54 nM | IC50 ([3]; 48 h, 2 days after exposure, read-out: IC50 (Anopheles death)): 42 nM | IC50 ([3]; 192 h, 8 days after exposure, read-out: IC50 (Anopheles death)): 37 nM | IC50 ([3]; 24 hours after the blood meal, read-out: IC50 [95% CI]): 56 nM | killing of mosquitos (in words) [3]: effective at killing the mosquitos in a dose-dependent manner | whole blood IC99 [3]: 119 nM and 66 ng/mL | CL (plasma clearance) [4]: 5.83 mL/h/kg | Oral bioavailability [4]: 11-34% | V (volume of distribution) [4]: 3.1 L/kg | half-life [4]: 360 h | half-life ([5]; cryopreserved hepatocytes): > 3.61 h | hepatocyte CLint ([5]; cryopreserved hepatocytes): < 6.4 µL/min/1e6 cells | IC50 ([6]; 24 hours after the blood meal, Cayman strain): 35.8 nM

O=C(CNC(=O)c1ccc(C2=NO[C@](c3cc(Cl)cc(C(F)(F)F)c3)(C(F)(F)F)C2)c2ccccc12)NCC(F)(F)F (racemic) [Afoxolaner, afoxolaner]
half-life ([1]; hepatocytes): > 3.61 h | hepatocyte CLint ([1]; hepatocytes): < 6.4 µL/min/1e6 cells | Plasma stability % remaining @ 2 h [7]: 84% (cy); | half-life ([2]; hepatocytes): > 3.61 h | hepatocyte CLint ([2]; hepatocytes): < 6.4 µL/min/1e6 cells | metabolization when incubated with human hepatocytes [2]: Neither fluralaner nor afoxolaner showed measurable metabolization | Dog PK (PO) [8]: ~600 nM at Day 45 | IC50 ([3]; 24 h, read-out: IC50 (Anopheles death)): 107 nM | IC50 ([3]; 24 h, read-out: IC50 [95% CI]): 107 nM | IC50 ([3]; 48 h, read-out: IC50 (Anopheles death)): 34 nM | IC50 ([3]; 192 h, read-out: IC50 (Anopheles death)): 14 nM | killing of mosquitos (in words) [3]: effective at killing the mosquitos in a dose-dependent manner | whole blood IC99 [3]: 233 nM and 146 ng/mL | Plasma stability % remaining @ 2 h [9]: 100% (d); | Plasma stability % remaining @ 2 h [10]: 84% (hu) | CL (plasma clearance) [4]: 4.95 mL/h/kg | Oral bioavailability [4]: 74% | V (volume of distribution) [4]: 2.68 L/kg | half-life [4]: 372 h | Plasma stability % remaining @ 2 h [11]: 61% (r); | Plasma stability % remaining @ 2 h [12]: 83% (ms); | half-life ([5]; hepatocytes): > 3.61 h | hepatocyte CLint ([5]; hepatocytes): < 6.4 µL/min/1e6 cells | IC50 ([6]; 24 h): 90.2 nM

— US20200061026A1, “METHODS AND COMPOSITIONS FOR PREVENTING VECTOR-BORNE DISEASE TRANSMISSION” (The Scripps Research Institute, priority 2016, published 2020)
